The source of these data is US12226395B2, “Composition for preventing or treating neurodegenerative diseases, containing diterpene-based compound” (KOREA RESEARCH INSTITUTE OF BIOSCIENCE AND BIOTECHNOLOGY, priority 2017, dated 2025).

Format in all cases: cell-based
Test [1] addresses T1, Nurr1 (Homo sapiens, UniProt P43354).
T1 construct: 3 types of plasmid DNA, including DNA containing Nurr1-LBD and DNA with β-galactosidase, were transfected into BE(2)C cells; expressed in transfected cells; host or cells: BE(2)C cells
Description: Nurr1 activity, luciferase reporter analysis in transfected BE(2)C cells. The following applies: for Nurr1 activation (in words): no concentration stated; for Nurr1 activity (luciferase), multiple of 0.1% DMSO control: BE(2)C cells, 20 hours. The source says:
As in Example 2, Nurr1 activity according to the concentration of the diterpene isolated from the extract of Daphne genkwa was confirmed through luciferase analysis.
Specifically, after synthesizing a vector in which the gene having the nucleotide sequence (5′-CTCGGAGGACAGTACTCCG-3 SEQ ID NO:1) to which the GLA4 gene can bind is repeated 8 times to the reporter gene, luciferase, is synthesized, 3 types of plasmid DNA, including DNA containing Nurr1-LBD and DNA with β-galactosidase, were transfected into BE(2)C cells. After 6 hours, the compounds 1 to 10 separated in Example 2 were treated according to the concentrations in Table 1 below. The cells thus treated were cultured in a 5% carbon dioxide incubator at 37° C. for 20 hours, and then luciferase analysis was performed. As a control, 0.1% DMSO was used, and at this time, the activity was increased by multiple, and Amodiaquine was used as a positive control.

The subject of test [2] is nitric oxide production in microglia BV-2 cells. Description: Inhibition of nitric oxide production in LPS-treated microglia BV-2 cells (Griess reagent). The following applies: for Inhibition of nitric oxide production (in words): microglia BV-2 cells. The source says: The death of cranial nerve cells due to an inflammatory reaction in a microglia cell has been reported as one of the main causes of degenerative brain diseases such as dementia and Parkinson's disease. (Sarkar S et al., Neurotoxicology, 44, 250-262 (2014); Bower J H et al., Neurology, 67, 494-496 (2006)). Accordingly, the inhibition activity on nitric oxide production, a representative inflammatory factor, was investigated for the compounds isolated from Example 2 in a microglia. Specifically, microglia BV-2 cells were put into a 96-well plate at 5×10^4 cells/well, and cultured for 2 days, followed by incubation with LPS ([…]) for 24 hours with the compound isolated in Example 2 above. The culture supernatant was measured for absorbance at 540 nm using the Griess reagent to quantify nitrite to investigate the amount of nitric oxide production. Minocyline was used as a positive control.
(In general: Nitrite, measured by Griess reagent, commonly stands in for NO production.)

Test [3] deals with T1, Nurr1. Nature of the test: Nurr1 activity, luciferase reporter analysis in transfected BE(2)C cells. A general note: In a reporter assay the amount or activity of a reporter protein is the signal.
Setting [4] is: BV-2 cells, LPS 24 hours, nitrite by Griess reagent, read-out: IC50, inhibition of nitric oxide production (Table 5).
[5] abbreviates: Mus musculus, BV-2 cells, LPS 24 hours, nitrite by Griess reagent, read-out: IC50, inhibition of nitric oxide production (Table 4).
The mark [6] stands for this setting: High concentration = 1 μM (Table 1).
Setting [7] is: Low concentration = 0.01 μM (Table 1).
The mark [8] stands for this setting: Mid concentration = 0.1 μM (Table 1).

Like-named read-outs stand apart in the source and are kept apart here.

T1 sequence (P43354 360-595 limits assumed): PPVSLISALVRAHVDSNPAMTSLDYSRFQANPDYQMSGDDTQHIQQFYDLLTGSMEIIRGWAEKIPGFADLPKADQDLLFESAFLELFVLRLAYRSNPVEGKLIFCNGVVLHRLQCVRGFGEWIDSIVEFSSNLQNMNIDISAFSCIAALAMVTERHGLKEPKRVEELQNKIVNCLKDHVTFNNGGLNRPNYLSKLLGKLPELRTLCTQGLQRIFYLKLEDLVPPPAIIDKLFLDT

As usually defined, the IC50 is the concentration at which inhibition is half-maximal. With `C=C(C)[C@@]12O[C@@]3(/C=C/C=C/CCCCC)O[C@@H]1[C@@H]1[C@@H]4O[C@]4(CO)[C@@H](O)[C@]4(O)C(=O)C(C)=C[C@H]4[C@@]1(O3)[C@H](C)[C@H]2OC(C)=O` [compound 13, yuanhuadine], the entries for the “Nurr1 activation (in words)” value in test [1], in test [3] (0.003 μM) and in test [3] (0.03 μM) were “better effect of increasing Nurr1 activity”, “activated Nurr1” and “significantly activates Nurr1”, respectively. Also, the IC50 in test [2] (setting [4]) was 1.8 µM. Moreover, the “Nurr1 activity (Table 3), relative to control treatment” value in test [3] (0.003 μM) was 1.23 ± 0.09; in test [3] (0.01 μM), 1.35 ± 0.28; in test [3] (0.03 μM), “*1.47 ± 0.17”; in test [3] (0.1 μM), “*1.42 ± 0.14”; in test [3] (0.3 μM), “*1.65 ± 0.2”; in test [3] (1 μM), “**1.47 ± 0.02”.

With `CCC/C=C/C=C/C=C/C(=O)O[C@@H]1[C@@H](C)[C@@]2(O)C(C=C(CO)C[C@]3(O)C(=O)C(C)=CC23)C2C(C)(C)[C@@]21OC(C)=O` (stereo partly drawn) [compound 16, (4aR,7bS,8R,9R,9aS)-9a-acetoxy-4a,7b-dihydroxy-3-(hydroxymethyl)-1,1,6,8-tetramethyl-5-oxo-1a,1b,4,4a,5,7a,7b,8,9,9a-decahydro-1H-cyclopropa[3,4]benzo[1,2-e]azulen-9-yl (2E,4E,6E)-deca-2,4,6-trienoate], the “Nurr1 activation (in words)” value in test [1] is given as “better effect of increasing Nurr1 activity”; in test [3] (0.03 μM) it was “significantly activates Nurr1”. For the same molecule, in test [2] (Mus musculus, BV-2, 24 h, read-out: IC50, inhibition of nitric oxide production (Table 5)), the IC50 turned out to be 1.78 µM. Further, the “Nurr1 activity (Table 3), relative to control treatment” value in test [3] (0.03 μM) is listed as “*1.42 ± 0.15”; in test [3] (0.1 μM), “*1.68 ± 0.43”; in test [3] (0.3 μM) it was “*1.82 ± 0.51”; in test [3] (1 μM), “**1.53 ± 0.07”.

On to yuanhuatine [compound 14], for which the “Nurr1 activation (in words)” value in test [1] is recorded as “better effect of increasing Nurr1 activity”; in test [3] (0.003 μM), “activated Nurr1”; in test [3] (0.03 μM), “significantly activates Nurr1”. Further, the IC50 in test [2] (setting [4]) came out at 1.03 µM. For the same molecule, the “Inhibition of nitric oxide production (in words)” value in test [2] is “better inhibition activity on nitric oxide production”. Moreover, the “Nurr1 activity (Table 3), relative to control treatment” value in test [3] (0.003 μM) is 1.03 ± 0.15; in test [3] (0.01 μM) it was 0.94 ± 0.04; in test [3] (0.03 μM) it was “*1.63 ± 0.18”; in test [3] (0.1 μM), “**1.68 ± 0.11”; in test [3] (0.3 μM), “**1.62 ± 0.11”; in test [3] (1 μM) it was “*1.67 ± 0.32”.

In the case of `C=C(C)[C@]1(O)C[C@@H](C)[C@@]2(O)C([C@H]1OC(=O)c1ccccc1)[C@H](O)[C@@](O)(COC(=O)c1ccccc1)[C@@H](O)[C@@]1(O)C2C[C@H](C)[C@@H]1O` (stereo partly drawn) [Formula 5, ((2S,3S,3aR,4S,5S,6S,7R,8R,10R,10aR)-7-(benzoyloxy)-3,3a,4,5,6,8,10a-heptahydroxy-2,10-dimethyl-8-(prop-1-en-2-yl)tetradecahydrobenzo[e]azulen-5-yl)methyl benzoate], the “Nurr1 activity (luciferase), multiple of 0.1% DMSO control” value (“Nurr1 activity … of 0.1% DMSO control” below) is 1.9 in test [1] (High concentration = 10 μM (Table 1)), 0.9 in test [1] (Low concentration = 0.1 μM (Table 1)) and 1.2 in test [1] (Mid concentration = 1 μM (Table 1)). Besides, the IC50 in test [2] (setting [5]) was found to be 4.67 ± 3.1 µM.

Take `C=C(C)[C@@]12O[C@@]3(c4ccccc4)O[C@@H]1C1[C@@H]4O[C@]4(CO)[C@@H](O)[C@]4(O)C(=O)C(C)=CC4[C@@]1(O3)[C@H](C)[C@H]2OC(=O)c1ccccc1` (stereo partly drawn) [Formula 2, (2S,3aR,3cS,4aR,5S,5aS,8bR,9R,10R,10aS)-5,5a-dihydroxy-4a-(hydroxymethyl)-7,9-dimethyl-6-oxo-2-phenyl-10a-(prop-1-en-2-yl)-3a,3b,3c,4a,5,5a,8a,9,10,10a-decahydro-6H-2,8b-epoxyoxireno[2″,3″:6′,7′]azuleno[5′,4′:3,4]benzo[1,2-d][1,3]dioxol-10-yl benzoate]: the “Nurr1 activity … of 0.1% DMSO control” value in test [1] (setting [6]) turned out to be 1.9; in test [1] (setting [7]) it was 2.1; in test [1] (setting [8]), 2.2. In addition, the results for the “Nurr1 activation (in words)” value in test [1] and in test [3] (0.01 μM) were “better effect of increasing Nurr1 activity” and “excellent effect of Nurr1 activity”, respectively. In addition, the IC50 in test [2] (setting [5]) amounted to 0.06 ± 0.02 µM. Also, the “Inhibition of nitric oxide production (in words)” value in test [2] is on record as “superior inhibition activity on nitric oxide production”.

With `C=C(C)[C@@]12O[C@@]3(c4ccccc4)O[C@@H]1C1[C@@H]4O[C@]4(CO)[C@@H](O)[C@]4(O)C(=O)[C@@H](C)CC4[C@@]1(O3)[C@H](C)[C@H]2OC(C)=O` (stereo partly drawn) [Formula 6, (2S,3aR,3cS,4aR,5S,5aS,7S,8bR,9R,10R,10aS)-5,5a-dihydroxy-4a-(hydroxymethyl)-7,9-dimethyl-6-oxo-2-phenyl-10a-(prop-1-en-2-yl)dodecahydro-6H-2,8b-epoxyoxireno[2″,3″:6′,7′]azuleno[5′,4′:3,4]benzo[1,2-d][1,3]dioxol-10-yl acetate], the “Nurr1 activity … of 0.1% DMSO control” value was determined as 2.4 in test [1] (setting [6]), 1.0 in test [1] (setting [7]) and 1.8 in test [1] (setting [8]). The IC50 in test [2] (setting [5]) was found to be 0.25 ± 0.06 µM.
